According to patent US10188770B2, “Dental implant having enhanced early stability and method for manufacturing same” (OSSTEMIMPLANT CO., LTD., priority 2014, dated 2019):

Key:
implant-bone interface = assay: Removal torque of coated implants just after coating and after 3-year storage; format: in vivo; set-up: Removal torque: unit not given here; conditions: for removal torque compared with other bisphosphonates and bare implant (in words): summary of Table 1, bisphosphonate-coated implants; for removal torque compared with other dental implants (in words): summary of Table 2, implants coated with both rhBMP-2 and bisphosphonate
Method: In order to confirm the long-time storage stabilities of implant, osseointegration at implant-bone interface were measured via removal torque.
Each dental implant was coated with various bisphosphonates as described example 1 and its removal torque was measured just after coating step and 3-year self-storage, respectively.
Similarly, osseointegration at implant-bone interface were measured via removal torque for dental implants wherein the osteoclast activity inhibitor coating film further comprises a bone growth factor (BMP-2) as shown in Table 2.

tibia of micropigs = conditions: implants coated with rhBMP-2 and alendronate vs implants coated only with rhBMP-2, after 16 days, FIG. 6
Method: (§1) In order to impart hydrophilicity to the implants which were subjected to the above processes, the titanium surface was hydrophilized by plasma treatment (RFGD, O2, etc.) for 1 minutes and light radiation (ultraviolet rays, ultraviolet-ozone, etc.) for 5 minutes. Then, a 10 ml solution of 40 μg Alendronate, 40 μg Zolendronate, 1 μg BMP-2, and 40 μg Alendronate+1 μg BMP-2 was uniformly applied to the surface, and the prepared implants, in which the solution was not dried, were used in the following Examples 2, 3 and 4.

[1] = tested on: mandible and tibia of micropigs; conditions: hydrophilized implants coated with alendronate vs uncoated implants, 0 to 6 weeks, FIGS. 3 and 4
Method: as §1

[2] = storage period 0 year, implants coated with 10 ml solution of 40 μg bisphosphonate
[3] = storage period 0 year, implants coated with 10 ml solution of 40 μg bisphosphonate and 1 μg rhBMP-2
[4] = storage period 3 year, implants coated with 10 ml solution of 40 μg bisphosphonate
[5] = storage period 3 year, implants coated with 10 ml solution of 40 μg bisphosphonate and 1 μg rhBMP-2

| Structure (SMILES) | Removal torque (implant-bone interface; [2]) | Removal torque (implant-bone interface; [3]) | Removal torque (implant-bone interface; [4]) | Removal torque (implant-bone interface; [5]) | removal torque compared with other bisphosphonates and bare implant (in words) (implant-bone interface) | removal torque compared with other dental implants (in words) (implant-bone interface) | increase of removal torque compared to the negative control group (tibia of micropigs) | decrease in ISQ values compared to the negative control group [1] |
| --- | --- | --- | --- | --- | --- | --- | --- | --- |
| CCCCCN(C)CCC(O)(P(=O)(O)O)P(=O)(O)O [Ibandronate] | 98.4 ± 12.1 | 128.8 ± 13.4 | 85.4 ± 12.5 | 110.8 ± 13.4 | – | – | – | – |
| NCCC(O)(P(=O)(O)O)P(=O)(O)O [Pamindronate] | 99.6 ± 7.9 | 127.5 ± 12.2 | 84.1 ± 11.4 | 109.7 ± 12.2 | – | – | – | – |
| O=P(O)(O)C(O)(Cc1cccnc1)P(=O)(O)O [Resendronate] | 103.5 ± 9.3 | 128.1 ± 11.6 | 83.2 ± 9.3 | – | – | – | – | – |
| NCCCC(O)(P(=O)(O)O)P(=O)(O)O [Alendronate] | 100.2 ± 8.4 | 130.1 ± 9.7 | 99.4 ± 11.8 | 129.8 ± 13.1 | higher removal torque | higher removal torque value | about 23% | little decrease in ISQ values or the degree of the decrease was very lower |
| O=P(O)(O)C(O)(Cn1ccnc1)P(=O)(O)O [Zolendronate] | 104.4 ± 11.1 | 134.4 ± 11.9 | 103.8 ± 8.9 | 132.5 ± 10.7 | higher removal torque | higher removal torque value | – | – |
